According to patent US20040014142A1, “Differential diagnosis of neurodegeneration” (INNOGENETICS N.V., priority 1998, published 2004):

Tests used:
neuromodulin = assay: CSF neuromodulin level after chemotherapy of children (sandwich ELISA NM2/NM4); assay type: in vivo, human; settings: child with manifest neurotoxicity and diplegia after MTX; exceeded highest standard
Method: Neuromodulin was also measured with a sandwich-type ELISA, using two epitope-specific monoclonal antibodies (NM2, NM4; Oestreicher et al., 1994). NM2 was selected as capturing antibody, biotinylated NM4 as detector antibody. Recombinant neuromodulin was used as standard.
(§1) Lumbar punctures were performed for routine analysis either at baseline for diagnostic work-up or just prior to the IT administration of chemotherapy. Five ml of CSF was collected in different polypropylene tubes. One sample was centrifuged immediately at 1500 rpm for 2 minutes to eliminate cells and other insoluble material. The supernatant was stored at −70° C. for subsequent analysis. The number of freeze/thaw cycles was restricted to a minimum. Routine CSF measurement included cytology, protein concentration, glucose, etc.

tau = settings: in vivo
Method: Total tau was measured with the tau antigen test, using AT120 as capturing antibody and biotinylated HT7-BT2 as detector antibody (INNOTEST hTau antigen, Innogenetics, Gent, Belgium).
All patients underwent a thoroughly clinical evaluation at the time of diagnosis. Parental informed consent was available.
as §1

mice = assay: Titer after immunization of mice with α-synuclein (coating ELISA); assay type: in vivo
Method: Alpha-synuclein was purified from 3 liters of induced E. coli cultures resulting in purification of more than 10 mg α-synuclein (more than 90% pure estimated from coumassie and silverstained gels). The protein was injected into mice following several immunization schemes (Table 3). After 4 injections the titer to α-synuclein was evaluated in a coating ELISA.

[1] = animal 309 (m2), 1°: 50 μg α-synuclein, 2°: 5 μg peptide (IGP1463)

| CSF tau level (tau) [pg/mL] | Compound | CSF neuromodulin level (neuromodulin) [pg/mL] | Estimated titer in direct coating (mice; animal 308 (m4), 50 μg protein) | Estimated titer in direct coating (mice; [1]) | titer on peptide (mice; [1]) | Estimated titer in direct coating (mice; animal 309 (m4), 1°: 50 μg α-synuclein, 2°: 5 μg peptide (IGP1463)) | Estimated titer in direct coating (mice; animal 312 (m2), 5 μg α-synuclein protein) | Estimated titer in direct coating (mice; animal 312 (m3), 5 μg α-synuclein protein) | Estimated titer in direct coating (mice; animal 313 (m2), 1°: 50 μg protein, 2°: 5 μg protein) | titer to α-synuclein (serum dilution resulting in OD value twice the background) (mice; six mice, after 4 injections) |
| --- | --- | --- | --- | --- | --- | --- | --- | --- | --- | --- |
| > 1500 | CN(Cc1cnc2nc(N)nc(N)c2n1)c1ccc(C(=O)N[C@@H](CCC(=O)O)C(=O)O)cc1 [MTX, methotrexate] | > 8000 | – | – | – | – | – | – | – | – |
| – | α-synuclein | – | 250000 | 512000 | (titer of 2000 on peptide) | 128000 | 100000 | >512000 | 2500000 | above 100000 |
